Measured values published in PubChem BioAssay (NCI).
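96-well plates; 48 h exposure; 5 concentrations. Endpoints by linear interpolation between flanking doses. Not reached: highest tested concentration assigned. GI50 = concentration required for 50% inhibition of growth. TGI: concentration producing complete growth inhibition.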

Columns and labels:
Assay in all cases: NCI anticancer screen, dose series, 48 h
U251 CNS = system: U251 CNS
HCT-116 colon = system: HCT-116 colon
HCT-15 colon = system: HCT-15 colon
T-47D breast = system: T-47D breast
SK-MEL-28 melanoma = system: SK-MEL-28 melanoma
NCI/ADR-RES ovarian = system: NCI/ADR-RES ovarian
PC-3 prostate = system: PC-3 prostate
HCC-2998 colon = system: HCC-2998 colon
OVCAR-8 ovarian = system: OVCAR-8 ovarian
HS 578T breast = system: HS 578T breast

## CCCN(CCSSCCNc1nc(N(C)O)nc(N(C)O)n1)c1nc(N(C)O)nc(N(C)O)n1
U251 CNS
  GI50: 5.35 µM
  TGI: > 100 µM
HCT-116 colon
  GI50: 3.97 µM
  TGI: > 100 µM
HCT-15 colon
  GI50: 4.28 µM
  TGI: > 100 µM
T-47D breast
  GI50: 7.14 µM
  TGI: > 100 µM
SK-MEL-28 melanoma
  GI50: 6.99 µM
  TGI: > 100 µM
NCI/ADR-RES ovarian
  GI50: 6.48 µM
  TGI: > 100 µM
PC-3 prostate
  GI50: 82.4 µM
  TGI: > 100 µM
HCC-2998 colon
  GI50: 4.73 µM
  TGI: > 100 µM
OVCAR-8 ovarian
  GI50: 5.26 µM
  TGI: > 100 µM
HS 578T breast
  GI50: 25.5 µM
  TGI: > 100 µM

## CCSc1nnc(-c2ccc3ccccc3c2O)n1-c1ccc(Cl)cc1
U251 CNS
  GI50: 4.05 µM
  TGI: > 100 µM
HCT-116 colon
  GI50: 4 µM
  TGI: > 100 µM
HCT-15 colon
  GI50: 3.13 µM
  TGI: > 100 µM
T-47D breast
  GI50: 8.96 µM
  TGI: > 100 µM
SK-MEL-28 melanoma
  GI50: > 100 µM
  TGI: > 100 µM
NCI/ADR-RES ovarian
  GI50: 4.45 µM
  TGI: > 100 µM
PC-3 prostate
  GI50: 50.1 µM
  TGI: > 100 µM
HCC-2998 colon
  GI50: > 100 µM
  TGI: > 100 µM
OVCAR-8 ovarian
  GI50: 5.5 µM
  TGI: > 100 µM
HS 578T breast
  GI50: 85.4 µM
  TGI: > 100 µM

## CS(=O)(=O)OCCN(CCOS(C)(=O)=O)c1ccc(C=O)cc1
U251 CNS
  TGI: 45.7 µM
HCT-116 colon
  TGI: > 100 µM
HCT-15 colon
  TGI: 47.4 µM
T-47D breast
  TGI: > 71.6 µM
SK-MEL-28 melanoma
  TGI: 52.6 µM
NCI/ADR-RES ovarian
  TGI: > 80.8 µM
PC-3 prostate
  TGI: 86 µM
HCC-2998 colon
  TGI: 8.36 µM
OVCAR-8 ovarian
  TGI: 32.4 µM
HS 578T breast
  TGI: 58 µM

## COc1cc(OC)c(C(=O)/C=C/c2cccc(OC(C)=O)c2)cc1CC=C(C)C
U251 CNS
  GI50: 6.91 µM
  TGI: 14.7 µM
HCT-116 colon
  GI50: 3 µM
  TGI: 9.78 µM
HCT-15 colon
  GI50: 5.74 µM
  TGI: 14.4 µM
T-47D breast
  GI50: 4.15 µM
  TGI: 16.7 µM
SK-MEL-28 melanoma
  GI50: 9.52 µM
  TGI: 22.2 µM
NCI/ADR-RES ovarian
  GI50: 7.62 µM
  TGI: 31.3 µM
PC-3 prostate
  GI50: 9.4 µM
  TGI: 44 µM
HCC-2998 colon
  GI50: 8.87 µM
  TGI: 16.2 µM
OVCAR-8 ovarian
  GI50: 8.38 µM
  TGI: > 50 µM
HS 578T breast
  GI50: > 50 µM
  TGI: > 50 µM

## COc1ccc(-c2csc(NC(=O)c3cc(O)c(O)c(O)c3)n2)cc1
U251 CNS
  GI50: 4.09 µM
  TGI: > 33.3 µM
HCT-116 colon
  GI50: 6.69 µM
  TGI: > 33.3 µM
HCT-15 colon
  GI50: 6.63 µM
  TGI: > 33.3 µM
T-47D breast
  GI50: 5.19 µM
  TGI: 22.6 µM
SK-MEL-28 melanoma
  GI50: 13.2 µM
  TGI: > 33.3 µM
NCI/ADR-RES ovarian
  GI50: 11.2 µM
  TGI: > 33.3 µM
HCC-2998 colon
  GI50: 17.2 µM
  TGI: > 33.3 µM
OVCAR-8 ovarian
  GI50: 7.52 µM
  TGI: > 33.3 µM
HS 578T breast
  GI50: 19.3 µM
  TGI: > 33.3 µM

## OCc1ccc(N(CCN2CCCC2)Cc2ccc(F)cc2)cc1Cl
U251 CNS
  GI50: 15.5 µM
  TGI: 32.4 µM
HCT-116 colon
  GI50: 13.4 µM
  TGI: 37.3 µM
HCT-15 colon
  GI50: 18.6 µM
  TGI: 50.1 µM
T-47D breast
  GI50: 19 µM
  TGI: 49.2 µM
SK-MEL-28 melanoma
  GI50: 15.9 µM
  TGI: 30.2 µM
NCI/ADR-RES ovarian
  GI50: 18.2 µM
  TGI: 44.3 µM
PC-3 prostate
  GI50: 15.6 µM
  TGI: 37 µM
HCC-2998 colon
  GI50: 10.7 µM
  TGI: 23.8 µM
OVCAR-8 ovarian
  GI50: 14 µM
  TGI: 30.3 µM
HS 578T breast
  GI50: 20.9 µM
  TGI: 80.1 µM
